Data on two compounds can be found in patent US20240139211A1, “METHODS AND COMPOSITIONS FOR TREATING AMYOTROPHIC LATERAL SCLEROSIS” (Amylyx Pharmaceuticals, Inc., priority 2022, published 2024).

“And” between values parts separate entries of the source, which are not always exact repeats. Identical values can stand only once. Like-named read-outs stand apart in the source and are kept apart here.

The target of one data set is T1, hrCYP2C8 (Homo sapiens, UniProt P10632).
T1 sequence (P10632 1-490): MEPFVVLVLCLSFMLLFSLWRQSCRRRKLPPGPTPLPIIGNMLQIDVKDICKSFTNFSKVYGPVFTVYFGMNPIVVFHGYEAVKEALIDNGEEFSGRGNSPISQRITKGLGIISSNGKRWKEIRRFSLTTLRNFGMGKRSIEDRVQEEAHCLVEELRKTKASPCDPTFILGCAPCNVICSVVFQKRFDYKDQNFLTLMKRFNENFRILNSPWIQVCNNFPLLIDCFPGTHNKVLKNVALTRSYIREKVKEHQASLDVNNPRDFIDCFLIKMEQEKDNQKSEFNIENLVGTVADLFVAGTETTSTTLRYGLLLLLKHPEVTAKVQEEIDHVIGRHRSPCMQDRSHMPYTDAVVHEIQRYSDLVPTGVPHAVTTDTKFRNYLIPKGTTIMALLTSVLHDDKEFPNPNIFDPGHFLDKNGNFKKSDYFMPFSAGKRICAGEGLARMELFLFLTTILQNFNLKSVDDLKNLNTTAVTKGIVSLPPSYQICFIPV
The data set can be described thus: CYP reaction phenotyping with hrCYP2C8 (% remaining). The class given is in vitro ADME. Particulars: human, 1 h, 5 µM, pH 7.4.

Data set [1] can be described thus: Rat drug-drug interaction study TDF + AMX0035: urine recovery. The class given is in vivo. As to conditions: male, Sprague-Dawley, rat, in vivo. Here is the method:
Total urine recovery data for Tenofovir, TDF, and PB was calculated for the 24 hour collection period on Days 1 and 5. […] The reported urine recovery data included amount recovered (ng) and percent recovered (%) for […]. Individual and mean Tenofovir, TDF, and PB urine recovery data were presented with SD, reported to three significant figures, and CV %, reported to one decimal place.

A further data set concerns the target OATP1B3 (Homo sapiens, UniProt Q9NPD5). The data set can be described thus: Inhibitor of OATP1B3, probe substrate uptake. Particulars: for Inhibition of OATP1B3 / Inhibitor of OATP1B3: two concentrations per test article; for potency estimated from few doses: read-out: Estimated IC50, OATP1B3.
Data set [2] concerns CYPs in human liver microsomes (HLM). The data set can be described thus: CYP reaction phenotyping in HLM with chemical inhibitors (% remaining).
The target in data set [3] is CYPs in human liver microsomes (HLM) (Homo sapiens, UniProt P33261). Described as above. Particulars: +NADPH +N3B (CYP2C19).
The nature of data set [4]: Chemical stability in HBSSg_7.4 and HBSS_8.5. The class given is physicochemical. Here is the method: At pre-determined time points, an equal volume of acetonitrile with internal standard was added to each vial, and the mixture was placed at 4° C. until the end of the assay. The peak areas of the test article and IS of each sample were determined by LC-MS/MS, and the ratios of the peak areas (analyte:IS) were calculated.

The target in another data set is hrCYP3A4 (Homo sapiens, UniProt P08684). The data set can be described thus: CYP reaction phenotyping with hrCYP3A4 (% remaining). Particulars: human, 1 h, 5 µM, pH 7.4. It counts as in vitro ADME.
Data set [5] is described as follows: Rat drug-drug interaction study TDF + AMX0035: plasma pharmacokinetics. Particulars: Day 5, AMX0035 + TDF 840/25 mg/kg oral, male Sprague Dawley rats; individual animals; BLQ = <50 ng/mL.
The target of the next data set is hrCYP2C19 (Homo sapiens, UniProt P33261). The data set can be described thus: CYP reaction phenotyping with hrCYP2C19 (% remaining). The class given is in vitro ADME. As to conditions: human, 1 h, 5 µM, pH 7.4.
Data set [6] in a line: Solubility assessment in HBSSg_7.4 and HBSSg_8.5. Particulars: replicates 1-3.
A short description of data set [7]: Relevant plasma concentrations for in vitro transporter assessment. It counts as in vivo.
[8] abbreviates: HBSSg_7.4, target 8005 μM TUDCA, 64447 μM PB.
Setting [9] is: HBSSg_8.5, target 810 μM TUDCA, 73927 μM PB.

Sequence of OATP1B3 (Q9NPD5 whole entry): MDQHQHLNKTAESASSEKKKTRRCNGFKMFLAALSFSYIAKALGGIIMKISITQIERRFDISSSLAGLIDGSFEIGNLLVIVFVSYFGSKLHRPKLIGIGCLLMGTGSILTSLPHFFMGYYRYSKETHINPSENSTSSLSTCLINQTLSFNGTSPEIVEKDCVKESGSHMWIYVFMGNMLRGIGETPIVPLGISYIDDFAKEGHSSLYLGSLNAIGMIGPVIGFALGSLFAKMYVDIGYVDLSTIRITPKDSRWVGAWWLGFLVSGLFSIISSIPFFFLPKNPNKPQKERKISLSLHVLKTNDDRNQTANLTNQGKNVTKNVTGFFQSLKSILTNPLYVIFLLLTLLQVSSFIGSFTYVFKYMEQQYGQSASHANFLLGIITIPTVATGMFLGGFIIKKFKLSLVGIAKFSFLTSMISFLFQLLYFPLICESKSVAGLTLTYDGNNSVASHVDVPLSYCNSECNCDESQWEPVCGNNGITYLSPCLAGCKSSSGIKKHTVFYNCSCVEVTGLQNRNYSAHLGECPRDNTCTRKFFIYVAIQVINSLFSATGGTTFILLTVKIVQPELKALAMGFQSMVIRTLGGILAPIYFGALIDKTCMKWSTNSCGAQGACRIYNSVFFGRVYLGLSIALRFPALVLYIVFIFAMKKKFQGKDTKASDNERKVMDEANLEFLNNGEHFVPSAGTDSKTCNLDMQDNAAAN
Sequence of CYPs in human liver microsomes (HLM) (Homo sapiens, UniProt P33261) (P33261 whole entry): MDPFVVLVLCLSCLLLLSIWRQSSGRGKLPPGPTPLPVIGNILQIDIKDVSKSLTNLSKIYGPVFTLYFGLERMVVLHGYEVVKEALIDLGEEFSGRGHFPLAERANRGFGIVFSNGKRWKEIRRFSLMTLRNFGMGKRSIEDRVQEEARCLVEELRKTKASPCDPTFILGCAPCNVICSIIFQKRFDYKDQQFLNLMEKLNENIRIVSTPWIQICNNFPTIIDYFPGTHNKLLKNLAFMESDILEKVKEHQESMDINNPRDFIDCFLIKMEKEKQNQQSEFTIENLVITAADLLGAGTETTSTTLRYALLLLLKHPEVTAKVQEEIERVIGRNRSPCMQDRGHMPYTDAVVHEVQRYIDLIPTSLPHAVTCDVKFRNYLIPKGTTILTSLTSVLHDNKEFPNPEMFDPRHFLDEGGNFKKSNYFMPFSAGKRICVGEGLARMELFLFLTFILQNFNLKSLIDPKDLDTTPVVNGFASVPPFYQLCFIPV
Sequence of hrCYP3A4 (P08684 whole entry): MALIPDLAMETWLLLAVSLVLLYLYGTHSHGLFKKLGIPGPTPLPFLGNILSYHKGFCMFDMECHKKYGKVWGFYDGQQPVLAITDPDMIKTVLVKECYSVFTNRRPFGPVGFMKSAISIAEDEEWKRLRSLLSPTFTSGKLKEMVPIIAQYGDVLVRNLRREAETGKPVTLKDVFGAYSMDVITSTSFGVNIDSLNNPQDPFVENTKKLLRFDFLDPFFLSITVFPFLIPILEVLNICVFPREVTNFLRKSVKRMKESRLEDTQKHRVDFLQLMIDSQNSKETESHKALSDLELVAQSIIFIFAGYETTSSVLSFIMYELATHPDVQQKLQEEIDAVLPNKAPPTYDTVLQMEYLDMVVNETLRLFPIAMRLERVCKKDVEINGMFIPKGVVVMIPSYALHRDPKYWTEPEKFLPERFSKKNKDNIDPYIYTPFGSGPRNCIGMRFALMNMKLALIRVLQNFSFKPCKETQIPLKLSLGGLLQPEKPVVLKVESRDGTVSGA
Sequence of hrCYP2C19 (P33261 whole entry): as the sequence (P33261 whole entry) above

For the compound `O=C(O)CCCc1ccccc1` [PB, sodium phenylbutyrate], the “% remaining after 60 minutes” value at hrCYP2C8, at hrCYP3A4 and on hrCYP2C19 was “greater than 90%” each time. Besides, in [1], the Urine concentrations result was “Urine concentrations for PB analysis in all animals on Day 1, for TUDCA analysis in all animals on Days 1 and 5, and for TDF analysis in two animals on Day 1 and one animal on Day 5 were BLQ (<20 mg/mL) so no recovery data was calculated”. Besides, the “Inhibition of OATP1B3” value at OATP1B3 is on record as “did not inhibit”. In addition, the “Inhibitor of OATP1B3” value at OATP1B3 is “No”. Besides, in data set [2], the “Metabolism by the major CYPs in HLM” value is “neither PB nor TUDCA is metabolized”. Moreover, the “% remaining of TA in HLM” value in [2] (+NADPH +ketoconazole (CYP3A), 60 min) turned out to be 90.6%; in data set [2] (Maximum Metabolism-1: +NADPH −inhibitor, pre-incubated, 10 min), 118%; in data set [2] (Maximum Metabolism-1: +NADPH −inhibitor, pre-incubated, 20 min), 113%; in [2] (Maximum Metabolism-1: +NADPH −inhibitor, pre-incubated, 30 min), 110%; in data set [2] (Negative Control-1: −NADPH −inhibitor, pre-incubated, 5 min) it was 109%; in data set [2] (Negative Control-1: −NADPH −inhibitor, pre-incubated, 10 min) it was 114%. Further, the “% remaining of TA in HLM” value in data set [2] (Negative Control-1: −NADPH −inhibitor, pre-incubated, 20 min) was found to be 113%; in data set [2] (Negative Control-1: −NADPH −inhibitor, pre-incubated, 30 min), 112%; in data set [2] (Negative Control-1: −NADPH −inhibitor, pre-incubated, 60 min), 115%; in data set [3] (5 min), 101%; in [3] (20 min) it was 101%; in data set [3] (30 min), 101%. Besides, in data set [3] (60 min), the “% remaining of TA in HLM” value was determined as 101%. The “Chemical stability in the tested matrices” value in data set [4] (0.5 μM, 37° C., HBSSg_7.4 and HBSS_8.5) was “appeared to be stable”. Further, the “Percent of the 0-minute value” in data set [4] (HBSSg_7.4, 0 minutes) is 100%; in [4] (HBSSg_7.4, 120 minutes) it was 99.3%; in data set [4] (HBSSg_7.4, Overnight (~1020-[…])) it was 105%; in [4] (HBSSg_8.5, 0 minutes), 100%; in [4] (HBSSg_8.5, 120 minutes) it was 79.4%; in data set [4] (HBSSg_8.5, Overnight (~1020-[…])) it was 98.6%. In addition, the “Plasma Concentration of analyte at 8.0 hr” value in data set [5] turned out to be 102 ng/mL. Further, the “Measured Concentration” value in [6] (setting [8]) is 52000 µM and 59300 µM and 52800 µM; in data set [6] (setting [9]) it was 62200 µM and 53200 µM and 61100 µM. The “Percent of the Nominal Concentration” value in [6] (setting [8]) was 80.7% and 92.0% and 81.9%; in data set [6] (setting [9]), 84.1% and 72.0% and 82.6%. For the same compound, the “Plasma Cmax (total [I]1)” value in data set [7] (component of AMX0035, highest oral dose TUDCA 1000 mg, PB 3000 mg) was 826 µM. For the same compound, in [7] (projected unbound Iin, max), the “Unbound [I]m, max” value was determined as 326 µM. The “Unbound Cmax (Unbound [I]1)” value in [7] (projected, from total Cmax and plasma protein binding) amounted to 148 µM.

Turning to ursodeoxycholic acid, the “Uptake activity remaining, OATP1B3” value at OATP1B3 (50 μM) was 545.1%; at OATP1B3 (500 μM), “no uptake activity remaining”. Further, the potency estimated from few doses at OATP1B3 (estimated from two concentrations) and at OATP1B3 (estimated from two doses) was under 50 µM throughout. Besides, the “Inhibition of OATP1B3” value at OATP1B3 is “inhibited”. In addition, the “Inhibitor of OATP1B3” value on OATP1B3 is “Yes”.
